Assay results taken from the supplement of paper PMC10307832.

What was measured:
Assay in all cases: relative viability (nuclei count vs DMSO), 5 days (fraction); higher = more cells survive
[1] = compound: CC1=CC(=CC=C1)NC2=NC(=CS2)C3=CC=NC=C3 + COc1cc2c(Oc3ccc(NC(=O)C4(C(=O)Nc5ccc(F)cc5)CC4)cc3F)ccnc2cc1OCCCN1CCOCC1 [Foretinib] (partner 0.25 µM)
Procedure, shortened: (§1)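 Nuclei were stained with Hoechst during a one-step fixation (final 0.05% Triton X-100, 1% formaldehyde, 1 ug/ml Hoechst) carried out 5 days after dosing, then counted on 4× images. The cells, lung cancer lines in 1536-well plates, had been dosed by pin tool the day after seeding with one drug alone or a fixed anchor-drug dose plus five library-drug doses (not always all listed) in √10 steps. Relative viability is the nuclei count in treated wells divided by that in vehicle wells, and each value is the median of duplicate plates.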

[2] = compound: CC1=CC(=CC=C1)NC2=NC(=CS2)C3=CC=NC=C3 + Nc1nc2[nH]cc(CCc3ccc(C(=O)N[C@@H](CCC(=O)O)C(=O)O)cc3)c2c(=O)[nH]1 [Pemetrexed] (partner 0.2 µM)
Procedure, shortened: as §1

Masitinib + Bortezomib = compound: Cc1ccc(NC(=O)c2ccc(CN3CCN(C)CC3)cc2)cc1Nc1nc(-c2cccnc2)cs1 [Masitinib] + CC(C)C[C@H](NC(=O)[C@H](Cc1ccccc1)NC(=O)c1cnccn1)B(O)O [Bortezomib] (partner 0.002 µM)
Procedure, shortened: as §1

Masitinib + Crizotinib = compound: Cc1ccc(NC(=O)c2ccc(CN3CCN(C)CC3)cc2)cc1Nc1nc(-c2cccnc2)cs1 [Masitinib] + C[C@@H](Oc1cc(-c2cnn(C3CCNCC3)c2)cnc1N)c1c(Cl)ccc(F)c1Cl [Crizotinib] (partner 1 µM)
Procedure, shortened: as §1

UMC-11
relative viability ([1]; first compound 0.08 µM): 1.04 | relative viability ([1]; first compound 0.253 µM): 1.04 | relative viability ([1]; first compound 0.8 µM): 1.02 | relative viability ([1]; first compound 2.53 µM): 1.15 | relative viability ([1]; first compound 8 µM): 1.17 | relative viability ([2]; first compound 0.08 µM): 0.662 | relative viability ([2]; first compound 0.253 µM): 0.802 | relative viability ([2]; first compound 0.8 µM): 0.775 | relative viability ([2]; first compound 2.53 µM): 0.834 | relative viability ([2]; first compound 8 µM): 0.825 | relative viability (Masitinib + Bortezomib; first compound 0.01 µM): 0.793 | relative viability (Masitinib + Bortezomib; first compound 0.03162 µM): 0.743 | relative viability (Masitinib + Bortezomib; first compound 0.1 µM): 0.79 | relative viability (Masitinib + Bortezomib; first compound 0.3162 µM): 1.03 | relative viability (Masitinib + Bortezomib; first compound 1 µM): 0.714 | relative viability (Masitinib + Crizotinib; first compound 0.01 µM): 0.467 | relative viability (Masitinib + Crizotinib; first compound 0.03162 µM): 0.677 | relative viability (Masitinib + Crizotinib; first compound 0.1 µM): 0.706 | relative viability (Masitinib + Crizotinib; first compound 0.3162 µM): 0.571 | relative viability (Masitinib + Crizotinib; first compound 1 µM): 0.691
